Measurements reported in PMC12040169 (PLOS Biology, 2025).

test: in vitro; settings: human, hela cells, % viability

| SMILES | viability at 28.5 h, 10 µM |
| --- | --- |
| NS(=O)(=O)c1cc(C(=O)OCC(=O)c2ccccc2)c(Cl)cc1Cl [CBK264542] | 90.8% |
| c1cncc(-c2nnc(SCc3nc4ccccc4[nH]3)o2)c1 [CBK264543] | 98.1% |
| COc1ccccc1N(CC(O)Cn1nc(C)cc1C)S(=O)(=O)c1ccccc1 (centres unmarked) [CBK264546] | 100% |
| O=C(C1=C(O)C(=O)N(Cc2cccnc2)C1c1cccnc1)c1cccs1 (centres unmarked) [CBK264547] | 119% |
| COc1cccc(NC(=S)NCCCN2CCOCC2)c1 [CBK264548] | 123% |
| O=C(O)CCN1C(=O)C(O)=C(C(=O)c2ccc(Cl)cc2)C1c1ccccc1[N+](=O)[O-] (centres unmarked) [CBK264553] | 98.8% |
| O=C(C1=C(O)C(=O)N(CCCN2CCOCC2)C1c1cccnc1)c1cccs1 (centres unmarked) [CBK264555] | 113% |
| CN1CCc2c(sc3nc(SCc4cccc5ccccc45)n(-c4ccccc4)c(=O)c23)C1 [CBK264556] | 124% |
| O=C(Nc1ccccc1[N+](=O)[O-])c1cc(S(=O)(=O)NCc2ccco2)ccc1Cl [CBK264557] | 94.4% |
| CC1(C)NC(=O)N(CC(O)CN2CCCC2)C1=O (centres unmarked) [CBK264558] | 96.3% |
| Cc1ccc(C2C(C(=O)c3cccs3)=C(O)C(=O)N2CCN2CCOCC2)o1 (centres unmarked) [CBK264559] | 91.1% |
| O=C(NCCCO)c1ccc(/C=N/O)nc1 [CBK264560] | 97.7% |
| COc1ccc(OC(=O)c2cc(S(=O)(=O)N3CCCCCC3)ccc2Cl)cc1 [CBK264562] | 95.9% |
| CC1(C)CC(NCC(O)COc2cc(C(C)(C)C)c(O)c(C(C)(C)C)c2)CC(C)(C)N1 (centres unmarked) [CBK264564] | 124% |
| CCOC(=O)c1c(NC(=O)CN2CC(C)OC(C)C2)sc2c1CCC(C)C2 (centres unmarked) [CBK264572] | 107% |
| Cc1ccc(NC(=S)N2CCN(C/C=C/c3ccccc3)CC2)cc1 [CBK264574] | 98.9% |
| O=C(O)c1cc(S(=O)(=O)N2CCOCC2)c(Cl)cc1NC1CCCCC1 [CBK264576] | 97.8% |
| CCN(CC)S(=O)(=O)c1ccc(C)c(C(=O)Oc2cccc(-c3cnc4ccccc4n3)c2)c1 [CBK264577] | 85.8% |
| CC1(C)NC(=O)N(CC(O)CN(C2CCCCC2)C2CCCCC2)C1=O (centres unmarked) [CBK264578] | 101% |
| CCOc1ccc(-n2c(SCc3nc4ccccc4[nH]3)nc3sc4c(c3c2=O)CCCC4)cc1 [CBK264581] | 103% |

| SMILES | viability at 28.5 h, 10 µM |
| --- | --- |
| CC(NC(=O)/C(=C\c1ccc(Cl)cc1)NC(=O)c1ccccc1Br)C(=O)O (centres unmarked) [CBK264582] | 91.4% |
| CN(C)CCN1C(=O)C(O)=C(C(=O)c2cccs2)C1c1ccc([N+](=O)[O-])cc1 (centres unmarked) [CBK264584] | 92.6% |
| O=C(Nc1cccc2ccccc12)/C(=C\c1ccco1)NC(=O)c1ccc(Br)cc1 [CBK264587] | 104% |
| CN(C)CCCN1C(=O)C(O)=C(C(=O)c2ccc(Br)cc2)C1c1cccnc1 (centres unmarked) [CBK264589] | 105% |
| O=C(C1=C(O)C(=O)N(CCCn2ccnc2)C1c1cccc([N+](=O)[O-])c1)c1cccs1 (centres unmarked) [CBK264591] | 95.9% |
| O=C(CC1S/C(=N/N=C/c2ccc(-c3cc([N+](=O)[O-])ccc3Cl)o2)NC1=O)Nc1ccccc1 (centres unmarked) [CBK264592] | 95.3% |
| Cc1ccc(C(=O)C2=C(O)C(=O)N(Cc3cccnc3)C2c2cccc([N+](=O)[O-])c2)cc1 (centres unmarked) [CBK264593] | 89.3% |
| Cc1sc2nc(SCc3nc4ccccc4[nH]3)n(-c3ccc(Cl)c(Cl)c3)c(=O)c2c1C [CBK264594] | 102% |
| COc1c(Cl)ccc(Cl)c1C(=O)OCC(=O)O [CBK264596] | 115% |
| COc1ccc(C2=NN(c3ccc([N+](=O)[O-])cc3)C(=O)/C2=C/NCc2ccc3c(c2)OCO3)cc1 [CBK264598] | 84.1% |
| S=C(NCCCN1CCOCC1)Nc1ccccc1Cl [CBK264599] | 100% |
| O=C(C1=C(O)C(=O)N(CCCn2ccnc2)C1c1ccncc1)c1ccc(F)cc1 (centres unmarked) [CBK264601] | 93.7% |
| O=C(CN(c1cc(C(F)(F)F)ccc1Cl)S(=O)(=O)c1ccccc1)NCc1cccnc1 [CBK264607] | 94.4% |
| C1=CC2CC1CC2CN1CCC(N(CCc2ccccc2)Cc2ccccc2)CC1 (centres unmarked) [CBK264613G] | 87.7% |
| CCOc1cc(/C=C2\SC(=S)N(Cc3cccnc3)C2=O)ccc1OCc1cccc(F)c1 [CBK264615] | 112% |
| O=C(COc1ccccc1/C=C1/NC(=O)NC1=O)Nc1ccccc1 [CBK264620] | 99.3% |
| O=[N+]([O-])c1ccc(CN2CCC(N3CCN(CCO)CC3)CC2)cc1 [CBK264621G] | 92.6% |
| CN(Cc1ccccc1)C1CCN(Cc2ccccn2)CC1 [CBK264622G] | 107% |
| COc1cc(/C=C2\SC(=S)N(Cc3cccnc3)C2=O)ccc1OCc1cccc2ccccc12 [CBK264624] | 112% |
| CCOc1ccccc1NC(=O)CN(c1cc(C(F)(F)F)ccc1Cl)S(C)(=O)=O [CBK264627] | 84.7% |

| SMILES | viability at 28.5 h, 10 µM |
| --- | --- |
| O=C(CN1C(=O)S/C(=C\c2ccccc2OCc2ccccc2)C1=O)c1ccc(Cl)cc1 [CBK264628] | 92.5% |
| Cc1cc(C)nc(SCc2nc3ccc([N+](=O)[O-])cc3[nH]2)n1 [CBK264634] | 85.3% |
| COc1ccc(C(=O)C2=C(O)C(=O)N(Cc3cccnc3)C2c2ccc(N(C)C)cc2)cc1 (centres unmarked) [CBK264635] | 85.9% |
| O=C(O)c1ccc(COc2ccc(/C=C3\SC(=S)N(Cc4cccnc4)C3=O)cc2)cc1 [CBK264637] | 101% |
| O=S(=O)(NC1c2cccc3cccc(c23)C1Sc1ncccn1)c1ccc(Cl)cc1 (centres unmarked) [CBK264638] | 94.3% |
| CC1CC(C)CN(C2CCN(Cc3ccccn3)CC2)C1 (centres unmarked) [CBK264639G] | 99.4% |
| O=C(c1cc(-c2ccc(Cl)cc2)nc2ccccc12)n1nnc2ccccc21 [CBK264640] | 101% |
| O=C(CSc1nc2cccnc2[nH]1)Nc1cc(Cl)ccc1Cl [CBK264644] | 101% |
| COC(=O)c1ccc(NC(=O)CC2Sc3ccc(C(F)(F)F)cc3NC2=O)cc1 (centres unmarked) [CBK264645] | 110% |
| O=C(C(Cc1ccccc1)N1C(=O)C2CCCCC2C1=O)N1CCN(Cc2ccc3c(c2)OCO3)CC1 (centres unmarked) [CBK264648] | 102% |
| CCOc1ccc(C(=O)C2=C(O)C(=O)N(CCN3CCOCC3)C2c2ccc(N(C)C)cc2)c(C)c1 (centres unmarked) [CBK264650] | 92.7% |
| Cc1cccc(OCc2nnc(SCC(=O)NC3CCCCC3)o2)c1 [CBK264652] | 96.3% |
| CC(=O)Nc1ccc(S(=O)(=O)N2CCC(N3CCOCC3)CC2)cc1 [CBK264653G] | 116% |
| CCN(Cc1ccccc1)C1CCN(Cc2cccc(OC)c2)CC1 [CBK264654G] | 99.2% |
| COc1cc(CN2CCC(N3CCN(c4ccccc4)CC3)CC2)ccc1OCc1ccccc1 [CBK264655G] | 95.6% |
| Cc1ccc(S(=O)(=O)N2CCC(N3CCN(CCO)CC3)CC2)cc1 [CBK264656G] | 96.8% |
| COc1ccc(C(=O)C2=C(O)C(=O)N(Cc3cccnc3)C2c2cccc([N+](=O)[O-])c2)cc1 (centres unmarked) [CBK264661] | 99.5% |
| CN(C)CC(=O)Nc1ccc(Br)cc1C(=O)c1ccccc1Cl [CBK264663F] | 91.4% |
| O=C(CN(Cc1ccccc1)S(=O)(=O)c1cc(Cl)ccc1Cl)Nc1cccc(F)c1 [CBK264664] | 89.3% |
